Measured values: article PMC8836281, “Characterisation of Endogenous Peptides Present in Virgin Olive Oil” (International Journal of Molecular Sciences, 2022)
Like-named read-outs stand apart in the source and are kept apart here. Values belong to the compound of their own block, whether it stands above or below them. Residues, ends and D or L forms follow the SMILES beside them. No end group written: not given here.

Experiments:
rabbit-lung ACE = target: T1, rabbit-lung ACE (Oryctolagus cuniculus, UniProt P12822); test: ACE-inhibitory activity of synthetic peptides (fluorescence assay, substrate Abz-Gly-Phe(NO2)-Pro); format: biochemical; conditions: means ± SD of three different experiments, ND = not detected, read-out: ACEi Activity IC50 (µM) ± SD
T1 construct: rabbit-lung ACE (E.C.3.4.15.1., Sigma-Aldrich); purchased Sigma-Aldrich; host or cells: rabbit lung (tissue-derived enzyme)
T1 sequence (P12822 34-1310): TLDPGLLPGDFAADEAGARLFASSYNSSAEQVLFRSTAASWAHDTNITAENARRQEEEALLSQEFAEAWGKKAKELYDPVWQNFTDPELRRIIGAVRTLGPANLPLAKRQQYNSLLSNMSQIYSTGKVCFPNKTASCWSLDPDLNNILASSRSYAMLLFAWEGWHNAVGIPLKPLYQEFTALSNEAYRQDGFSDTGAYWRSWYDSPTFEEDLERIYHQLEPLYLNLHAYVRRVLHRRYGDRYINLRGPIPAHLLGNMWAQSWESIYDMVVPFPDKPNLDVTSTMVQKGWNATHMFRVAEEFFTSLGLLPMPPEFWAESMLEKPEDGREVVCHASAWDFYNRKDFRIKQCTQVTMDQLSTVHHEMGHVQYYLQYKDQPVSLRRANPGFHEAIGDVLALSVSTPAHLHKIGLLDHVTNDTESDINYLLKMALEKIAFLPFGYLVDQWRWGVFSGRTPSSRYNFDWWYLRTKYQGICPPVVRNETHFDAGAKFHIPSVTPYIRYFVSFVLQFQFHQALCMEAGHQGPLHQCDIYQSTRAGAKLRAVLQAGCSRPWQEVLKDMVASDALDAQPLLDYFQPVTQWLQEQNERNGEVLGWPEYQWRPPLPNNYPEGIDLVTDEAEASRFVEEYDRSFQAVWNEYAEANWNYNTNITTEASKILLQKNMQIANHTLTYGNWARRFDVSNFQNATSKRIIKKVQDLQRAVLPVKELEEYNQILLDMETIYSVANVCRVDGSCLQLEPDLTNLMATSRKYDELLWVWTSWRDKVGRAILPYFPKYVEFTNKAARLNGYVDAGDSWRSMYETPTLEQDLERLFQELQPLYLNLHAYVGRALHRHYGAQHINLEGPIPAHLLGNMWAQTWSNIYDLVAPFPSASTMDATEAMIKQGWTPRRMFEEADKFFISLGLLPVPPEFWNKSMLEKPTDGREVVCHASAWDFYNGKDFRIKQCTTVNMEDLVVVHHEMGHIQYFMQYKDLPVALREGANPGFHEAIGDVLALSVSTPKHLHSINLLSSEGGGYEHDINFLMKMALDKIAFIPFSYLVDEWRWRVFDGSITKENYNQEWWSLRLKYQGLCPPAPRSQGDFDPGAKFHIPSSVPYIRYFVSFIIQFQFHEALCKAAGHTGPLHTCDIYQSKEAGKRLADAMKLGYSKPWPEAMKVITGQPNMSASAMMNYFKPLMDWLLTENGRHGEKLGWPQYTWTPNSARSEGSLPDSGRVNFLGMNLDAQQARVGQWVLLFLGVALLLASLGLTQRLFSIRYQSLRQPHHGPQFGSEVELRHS
Description: The ACE-inhibitory activity of the synthetic peptides was determined according to the method described in [84], with some modifications. This assay is based on the ability of ACE to hydrolyse the substrate o-aminobenzoylglycyl-p-nitrophenylalanyl-proline (Abz-Gly-Phe-(NO2)-Pro, Bachem Feinchemikalien, Bubendorf, Switzerland), producing the fluorescent product o-aminobenzoylglycine (Abz-Gly). Reagents used include: buffer A: 150 mM Tris-HCl buffer (pH 8.3), with 0.1 µM ZnCl2; buffer B: 150 mM de Tris-HCl buffer (pH 8.4), with 1125 mM NaCl; ACE solution (stock): rabbit-lung ACE (E.C.3.4.15.1., Sigma-Aldrich), dissolved in buffer A containing 50% glycerol to make an enzyme concentration of 1 U/mL. This solution was diluted 1/20 with buffer A to obtain the working solution (50 mU/mL), which was prepared fresh every day to conduct the experiment. The substrate solution (Abz-Gly-Phe(NO2)-Pro) was dissolved in buffer B to a final concentration of 0.45 mM. This solution was also prepared every day before its use and was protected from light and kept at 4 °C. The assay was carried out using a fluorescence technique. Black polystyrene plates of 96 wells (Thermo Scientific, Waltham, Massachussets, USA) were used. The wells contained the following reaction solutions: control = 50 μL of Milli-Q water and 50 μL of ACE solution; blank = 50 μL of Milli-Q water and 50 μL of buffer A; sample = 50 μL of sample and 50 μL of ACE solution; sample blank = 50 μL of sample and 50 μL of buffer A. The enzymatic reaction was initiated by adding 200 μL (final volume in each well 300 μL) of substrate solution, and the plate was immediately mixed and incubated at 37 °C in a VICTORX5 fluorometer (PerkinElmer, USA). The fluorescence generated was measured after 30 min using 355 and 420 nm as excitation and emission wavelengths, respectively. The ACE-inhibitory activity of each sample was determined in triplicate. The ACE-inhibitory activity was calculated using the following formula: ACE inhibitory activity (%)=(FC−FB)−(FS−FBs)/FC−FB × 100 where FC (control) is the fluorescence emitted after the action of ACE on the substrate, without inhibitor (i.e., sample); FB (blank) is the fluorescence emitted by the substrate; FS (sample) is the fluorescence emitted after the action of ACE on the substrate, with inhibitor sample; and FBs (blank sample) are the fluorescences emitted by the substrate and the sample.
The ACE-inhibitory activity is expressed as IC50, which is the concentration of inhibitor required to inhibit the activity of ACE by 50%.

ACE = conditions: read-out: ACE inhibition IC50, cited from earlier work
[1] = system: pre- or hypertensive humans; design: method as in PMID 25608938; conditions: supplementation of pre- or hypertensive humans for longer than four weeks; meta-analysis of 30 trials; cited from earlier work
[2] = cited from earlier work

Compound: VPP
IC50 (ACE; peptides described in dairy): 9 µM | effect on systolic and diastolic blood pressure [1]: significant reduction in systolic and diastolic blood pressure

Compound: N[C@@H](CCC(=O)N[C@@H](CS)C(=O)NCC(=O)O)C(=O)O [glutathione]
antioxidant activity (TEAC) [2]: 0.9 TEAC

Compound: DCHYFL [Peptide no. 2 de novo, DCHYFL]
IC50 (rabbit-lung ACE): 41.5 ± 2.09 µM

Compound: SVY
IC50 (ACE; C-terminal di-/tripeptide of de novo peptide no. 1): 8.1 µM

Compound: CC(C)[C@H](NC(=O)[C@H](CO)NC(=O)[C@H](Cc1ccc(O)cc1)NC(=O)[C@H](CS)NC(=O)[C@@H](N)CS)C(=O)N[C@@H](Cc1ccc(O)cc1)C(=O)O [Peptide no. 1 de novo, CCYSVY] (H-CCYSVY-OH)
IC50 (rabbit-lung ACE): 25.6 ± 0.41 µM

Compound: IPP
IC50 (ACE; peptides described in dairy): 5 µM | effect on systolic and diastolic blood pressure [1]: significant reduction in systolic and diastolic blood pressure

Now from value to compound:

IC50 (rabbit-lung ACE): 3.76 ± 0.39 µM
Compound: CPANGFY [Peptide no. 19, CPANGFY]

IC50 (rabbit-lung ACE): 0.98 ± 0.04 µM
Compound: NALLCSNS [compound 18]

IC50 (rabbit-lung ACE): 57.2 ± 4.31 µM
Compound: VCGEAFGKA [Peptide no. 14]
